Legend:
[1] = test system: imiquimod-induced psoriasis mouse model; test: External application of ABT-737 gel and intraperitoneal injection of ABT-737 injection in imiquimod-induced psoriasis mouse model (Example 6); format: in vivo; conditions: intraperitoneal injection 25 mg/kg/day
Method: Effects of external application of BCL-2 inhibitor ABT-737 gel (Example 2) and intraperitoneal injection of 2.5 mg/ml BCL-2 inhibitor ABT-737 injection (Example 1) on imiquimod-induced psoriasis mouse model was studied.
19 healthy female Balb/c mice at the age of 8 weeks with a body weight of 20±2 g were taken, and depilated by 2×2 cm^2 on the back of the torso. After 24 h of depilation, it was confirmed that there was no abnormal change in depilated areas, and the mice were randomly divided into 5 groups, including: (1) a psoriasis mouse model group (3 mice): psoriasis model was induced by external application of imiquimod; (2) a group external application of ABT-737 gel (Example 2) for treating psoriasis mouse model (hereinafter referred to as ABT-737 gel treatment group, 5 mice): psoriasis model was induced by external application of imiquimod, and each mouse was treated with ABT-737 gel 0.5 g/day for external application; (3) a group of external application of blank gel (Example 4) to treat the psoriasis mouse model (hereinafter referred to as the blank gel control group, 5 mice): the psoriasis model was induced by external application of imiquimod, and each mouse was treated with blank gel the same amount as the ABT-737 treatment group by external application; (4) a group of intraperitoneal injection of BCL-2 inhibitor ABT-737 injection (Example 1; hereinafter referred to as ABT-737 intraperitoneal injection treatment group, 3 mice): psoriasis model was induced by external application of imiquimod, and each mouse was treated by intraperitoneal injection of 25 mg/kg/day of ABT-737 (that is, 200 μl of 2.5 mg/ml ABT-737 injection was given to the above-mentioned mice); (5) a group of blank injection for intraperitoneal injection (Example 3; hereinafter referred to as blank injection for intraperitoneal injection group, 3 mice): psoriasis model was induced by external application of imiquimod, and each mouse was treated by intraperitoneal injection of 200 μl of blank injection. […]

[2] = test system: imiquimod-induced psoriasis mouse model; test: Subcutaneous injection of ABT-737 injection in imiquimod-induced psoriasis mouse model (Example 5); format: in vivo; conditions: subcutaneous injection 25 mg/kg/day
Method: Effects of subcutaneous injection of 2.5 mg/ml BCL-2 inhibitor (ABT-737 injection) on imiquimod-induced psoriasis mouse model were studied.
16 healthy female Balb/c mice at the age of 8 weeks with a body weight of 20±2 g were taken, and depilated by 2×2 cm^2 on the back of the torso. After 24 h of depilation, it was confirmed that there was no abnormal change in depilated areas, and the mice were randomly divided into 4 groups, including: (1) a normal control group (3 mice): no special operations were conducted; (2) a psoriasis mouse model group (3 mice): psoriasis model was induced by external application of imiquimod; (3) a group of subcutaneous injection of ABT-737 injection (Example 1) to treat psoriasis mouse model (hereinafter referred to as ABT-737 subcutaneous injection group, 5 mice): psoriasis model was induced by external application of imiquimod, and subcutaneous injection of 25 mg/kg/day ABT-737 was conducted for treatment (that is, 200 μl of 2.5 mg/ml ABT-737 injection was given to the above-mentioned mice); (4) a group of subcutaneous injection of blank injection (Example 3) to treat psoriasis mouse model (hereinafter referred to as blank injection for subcutaneous injection group, 5 mice): psoriasis model was induced by external application of imiquimod, and subcutaneous injection of blank injection was conducted in an equal volume with the ABT-737 subcutaneous injection group.
Except for the normal control group, the above-mentioned mice are all prepared with imiquimod-induced psoriasis models: 62.5 mg of 5% imiquimod (Sichuan Med Shine Pharmaceutical Co., Ltd.) was applied evenly with a cotton swab on the depilated areas on the back of the torso of the mouse, by once a day for 7 consecutive days with an interval of 24 h. After the modeling, the skin of the mouse back modeling in the psoriasis model group was taken for tissue paraffin embedding and routine section for HE staining observation. Compared with the normal control group, the model is established based on histological changes such as parakeratosis and spinous layer hypertrophy.
Immunohistochemical staining of p16, p21 and CD4 was conducted at the same time. The ratio of p16 and p21 positive cells of skin cellular senescence-related molecules between each group was compared under a multispectral microscope, and the infiltration degree of CD4^+ T cells in the skin between each group was compared (FIG. 3). • (3) In addition, the skin specimens of the back modeling sites of the torso of a total of 10 mice in the ABT-737 subcutaneous injection group and the blank injection for subcutaneous injection group were taken, added to an RNA protection solution, cut and ground to prepare a single cell suspension. […]

[3] = vs blank injection for subcutaneous injection group, FIG. 3

## CN(C)CC[C@H](CSc1ccccc1)Nc1ccc(S(=O)(=O)NC(=O)c2ccc(N3CCN(Cc4ccccc4-c4ccc(Cl)cc4)CC3)cc2)cc1[N+](=O)[O-] [ABT-737]
[1]; FIG. 6
  improvement of the skin lesions of the mouse model (skin appearance): better than the psoriasis model group, the blank gel control group and the blank injection for intraperitoneal injection group, but is slightly inferior to the ABT-737 gel treatment group
[1]; FIG. 7
  improvement of the skin lesions of the mouse model (HE pathological sections): better than the psoriasis model group, the blank gel control group and the blank injection for intraperitoneal injection group, but is slightly inferior to the ABT-737 gel treatment group
[1]; FIG. 8
  reduction of p16, p21, CD4 and BCL2 positive cells (immunohistochemistry): better than the blank gel control group and the blank injection for intraperitoneal injection group, but is slightly inferior to the ABT-737 gel treatment group
[2]; FIG. 2
  dermal inflammatory cells (HE staining): significantly reduced
  downward extension of epidermal protrusions on the back skin lesions (HE staining): significantly reduced
  spinous cell layer (HE staining): thinned
[2]; conclusion from spleen and DLN T cell subsets
  systemic damage: without any systemic damage
[2]; vs blank injection for subcutaneous injection group and psoriasis model group, FIG. 1
  appearance of skin at the modeling site: skin swelling, skin thickening and scales: significant improvement
[2]; [3]
  proportion of CD4+ cells infiltrated by dermal inflammation (immunohistochemistry): significantly reduced
  proportion of senescent cells staining positive in p16 and p21 in paraffin sections of skin lesions (immunohistochemistry): significantly reduced
[2]; vs blank injection for subcutaneous injection group, FIG. 4
  mRNA expression levels of genes corresponding to P16, P21, BCL-2, INF-7 and IL17A in skin (real-time quantitative PCR): decrease significantly

From US20230398133A1, “USE OF B-CELL LYMPHOMA 2 (BCL-2) INHIBITOR AND PHARMACEUTICAL COMPOSITION FOR TREATING CELLULAR SENESCENCE-RELATED SKIN DISEASES” (Xeon Biopharmaceutical Limited, priority 2020, published 2023)
